The numbers were not newly measured in PMC4621754, “Parasitic diarrheal disease: drug development and targets” (Frontiers in Microbiology, 2015), which cites them from elsewhere.

Where two headings read alike, the source gives them in different places.

Usually IC50 stands for the midpoint of a concentration-inhibition curve.

The subject of data set [1] is E. histolytica.
Data set [2] has as its system G. lamblia.
Data set [3] relates to I. belli.
Setting [4] is: HM1: IMSS strain, ref Wani et al., 2012b.
Where [5] appears, read: HM1:IMSS strain, ref Duque-Montaño et al., 2013.
The mark [6] stands for this setting: in vitro, ref Torres-Gomez et al., 2008b.
[7] abbreviates: ref Hernández-Nunez et al., 2009.
[8] abbreviates: ref Navarrete-Vazquez et al., 2003.
Setting [9] is: in vitro, ref Hernández-Nunez et al., 2009.

Turning to “1,1^∕-(10,15-diphenyl-21,23-dithiaporphine-5,20-diyl)bis[2-{[methyl(phenylmethyl)amino]methyl}-ferrocene] [Compound 34]”, the IC50 in data set [1] (in vitro, HM1:IMSS strain, ref Bhat et al., 2009b) was 0.59 µM. `Cc1ccc(/C=C/C(=O)c2ccc(C)cc2)cc1` [Compound 25, (2E)-1,3-bis(4-methylphenyl)prop-2-en-1-one]: the IC50 in data set [1] (setting [4]) is 4.19 µM. As for `COc1ccc(-c2nnnn2CC(=O)N2N=C(c3ccccc3)CC2c2ccc(OC)cc2)cc1` (stereo not shown) [Compound 26, 1-(4,5-dihydro-5-(4-methoxyphenyl)-3-phenylpyrazol-1-yl)-2-(5-(4-methoxyphenyl)-1H-tetrazol-1-yl)ethanone], the IC50 in data set [1] (setting [4]) was 1.16 µM. Consider `O=[N+]([O-])c1ccc(S(=O)(=O)Nc2nc(NS(=O)(=O)c3ccc([N+](=O)[O-])cc3)nc(-c3ccc4c(c3)OCO4)n2)cc1` [Compound 27, N, N^∕-6-(1,3-benzodioxol-5-yl)-(1,3,5-triazine-2,4-diyl)-bis-4-nitrobenzene sulphonamide], for which, in data set [1] (ref Wani et al., 2012a), the IC50 is 1.02 µM. Take `O=S(=O)(Nc1nc(-c2ccccc2)cc(-c2ccccc2Cl)n1)c1ccccc1` [Compound 28, N-[4-(2-chlorophenyl)-6-phenylpyrimidin-2-yl]-benzenesulphonamide]: the IC50 in data set [1] (in vitro, ref Siddiqui and Azam, 2014) is 0.44 µM. In the case of `COc1ccc(C2ON=C(c3ccc([N+](=O)[O-])s3)O2)cc1` (stereo not shown) [Compound 29, 5-(4-methoxy-phenyl)-3-(5-nitro-2-thienyl)-1,4,2-dioxazole], the IC50 in data set [1] (in vitro, ref Irfan et al., 2010) was 1.6 µM.

As to `Cc1cccc(NC(=S)NN=Cc2ccc(-c3c4nc(c(-c5ccccc5)c5ccc([nH]5)c(-c5ccccc5)c5nc(c(-c6ccccc6)c6ccc3[nH]6)C=C5)C=C4)cc2)c1` [Compound 30, 4-(3-methylphenyl)-1-{[4-(10,15,20-triphenylporphyrin-5-yl)phenyl]methylidene}thiosemicarbazide], the IC50 in data set [1] (ref Bhat et al., 2008) is 0.538 µM. Regarding `CC(=NNC(=S)NCc1ccc(C)cc1)c1c(O)ccc2ccc(=O)oc12` [Compound 31, 7-hydroxy-8-acetylcoumarin-N(4,4)methylbenzyl thiosemicarbazone], in data set [1] (ref Iqbal et al., 2009), the IC50 was 1.06 µM. On to `O=[N+]([O-])c1ccc(NC(=S)N2N=C(c3ccccc3)CC2c2ccc(C3CC(c4ccccc4)=NN3C(=S)Nc3ccc([N+](=O)[O-])cc3)cc2)cc1` (stereo not shown) [Compound 32], for which, in data set [1] (ref Bhat et al., 2009a), the IC50 is 0.42 µM.

Consider `CC(C)c1ccccc1C1CC(c2ccccc2)=NN1c1nc2nc3ccccc3nc2s1` (stereo not shown) [Compound 33, 2-{5-[2-(methylethyl)phenyl]-3-phenyl-2-pyrazolinyl}-1,3-thiazolino[5,4-b]quinoxaline], for which the IC50 in data set [1] (HM1:IMSS strain, ref Budakoti et al., 2009) was 0.17 µM. As to `COC(=O)c1ccc2c(c1)[n+]([O-])c(C(C)=O)c(C)[n+]2[O-]` [Compound 37, methyl 2-acetyl-3-methyl-quinoxaline-7-carboxylate 1,4-di-N-oxide], in data set [1] (setting [5]), the IC50 was 1.41 µM. Regarding `CCOC(=O)c1ccc2c(c1)[n+]([O-])c(C(N)=O)c(C)[n+]2[O-]` [Compound 38, ethyl 2-amide-3-methylquinoxaline-7-carboxylate 1,4-di-N-oxide], the IC50 in data set [1] (setting [5]) was 1.47 µM. With `COc1ccc(NC(=O)C(N)CCSC(F)(F)F)cc1OC` (stereo not shown) [Compound 40, 3,4-dimethoxyanilide trifluoromethionine], in data set [1] (in vitro, ref Sato et al., 2010), the IC50 is 1.19 µM. Take `COc1ccc2[nH]c(-c3ccc(OCCCCCOc4ccc(-c5nc6cc(OC)ccc6[nH]5)cc4)cc3)nc2c1` [Compound 41, 1,5-bis[4-(5-methoxy-1H-benzimidazole-2-yl)phenoxy]pentane]: the 50% inhibitory concentration (IC50) in data set [1] (setting [6]) was 0.109 µM.

Take `Cc1nc([N+](=O)[O-])cn1CC(=O)NCc1ccccc1` [Compound 42, N-benzyl-2-(2-methyl-4-nitro-1H-imidazol-1-yl)acetamide]: the IC50 in data set [1] (setting [7]) is 3.96 µM. `Cc1ccc(S(=O)(=O)n2cc([N+](=O)[O-])nc2C)cc1` [Compound 43, 2-methyl-1-[(4-methylphenyl)sulfonyl]-4-nitro-1H-imidazole]: the IC50 in data set [1] (setting [7]) is 3.55 µM. For `O=[N+]([O-])c1cccc(/C=N/Nc2ccccc2)c1` [Compound 44, (E)-1-(3-nitrobenzylidene)-2-phenylhydrazine], the IC50 in data set [1] (in vitro, HM1:IMSS strain, ref Toledano-Magana et al., 2015) was 0.84 µM. Take `COc1ccc(Nc2c(C#N)cnc3sccc23)cc1` [Compound 58, 4-(4-methoxyphenylamino)thieno[2,3-b]pyridine-5-carbonitrile]: the giardicidal effect entry in data set [2] (ref Bernardino et al., 2006) was “excellent giardicidal effect”. With `COc1cc(-c2nc3cc(C)ccc3[nH]2)ccc1OCCCCCOc1ccc(-c2nc3cc(C)ccc3[nH]2)cc1OC` [Compound 59, 1,5-bis[2-methoxy-4-(5-methyl-1H-benzimidazole-2-yl)phenoxy] pentane], in data set [2] (setting [6]), the IC50 is 0.372 µM. In data set [2] (ref Torres-Gomez et al., 2008a), the 50% inhibitory concentration (IC50) was 0.372 µM, the “folds more potent than metronidazole” value is 3 folds and the “folds more potent than pentamidine” value is recorded as 9 folds. In data set [2] (ref Torres-Gomez et al., 2008b), the “fold more activity than metronidazole” value is listed as 3 fold and the “fold more activity than pentamidine” value is given as 9 fold. On to `Cn1c(C(F)(F)F)nc2cc(Cl)ccc21` [Compound 60, 5-chloro-1-methyl-2-(trifluoromethyl)benzimidazole], for which the IC50 in data set [2] (in vitro, ref Gabriel Navarrete-Vaa Zquez et al., 2001) is 0.042 µM. In the case of `COc1ccc(C(=O)/C=C/c2ccccc2F)cc1` [Compound 61, (E)-3-(6-flourophenyl)-1-(4-methoxyphenyl)prop-2-en 1-one], the 50% inhibitory concentration (IC50) in data set [2] (ref Montes-Avila et al., 2009) is 12.7 µM. Consider `CCCSc1ccc2nc(C(F)(F)F)n(C)c2c1` [Compound 63, 1-methyl-6-(propylthio)-2-(trifluoromethyl)-1H-benzimidazole], for which the IC50 in data set [2] (setting [8]) is 1.4 µM. For `CCCSc1ccc2[nH]c(C(F)(F)F)nc2c1` [Compound 64, 5(6)-(propylthio) -2-(trifluoromethyl)-1H-benzimidazole], the IC50 in data set [2] (setting [8]) was 1.52 µM. With `Cn1c(C(F)(F)F)nc2cc(C(=O)c3ccccc3)ccc21` [Compound 65, 5-benzoyl-1-methyl-2-(trifluoromethyl)-1H-benzimidazole], the IC50 in data set [2] (setting [8]) was 1.1 µM. Take `Cn1c(C(F)(F)F)nc2ccc(C(=O)c3ccccc3)cc21` [Compound 66, 6-benzoyl-1-methyl-2-(trifluoromethyl)-1H-benzimidazole]: the IC50 in data set [2] (setting [8]) was 1.28 µM. In the case of `COc1cc(NC(c2coc3ccccc3c2=O)c2nnnn2C2CCCCC2)cc(OC)c1OC` (stereo not shown) [Compound 67, 3-((1-cyclohexyl-1H-tetrazol-5-yl)((3,4,5-trimethoxyphenyl)amino)methyl)-4H-chromen-4-one], in data set [2] (ref Cano et al., 2014), the IC50 is 171 µM.

As to `Cc1nc([N+](=O)[O-])cn1CC(=O)Nc1ccc(C#N)cc1` [Compound 72, N-(4-cyanophenyl)-2-(2-methyl-4-nitro-1H-imidazol-1-yl) acetamide], in data set [2] (setting [9]), the IC50 was 11.2 µM. `Cc1nc([N+](=O)[O-])cn1S(=O)(=O)c1ccc([N+](=O)[O-])cc1` [Compound 73, 2-methyl-4-nitro-1-[(4-nitrophenyl)sulfonyl]-1H-imidazole]: the IC50 in data set [2] (setting [9]) is 7.5 µM. In the case of `O=C1OCCN1/N=C/c1ccc([N+](=O)[O-])o1` [furazolidone, Furazolidone], the “cure of I. belli induced diarrhea” value in data set [3] (ref Trier et al., 1974, Syrkis et al., 1975, Butler and De Boer, 1981, Weiss et al., 1988) was “cure the I. belli induced diarrhea but to lesser extent”. Regarding `CCc1nc(N)nc(N)c1-c1ccc(Cl)cc1` [pyrimethamine], the “cure of diarrheal disease caused by I. belli” value in data set [3] (ref Ferguson et al., 1980, Ebrahimzadeh and Bottone, 1996) is “cure the diarrheal disease”.

Consider Ni(Fctpy)2][PF6]2 [Compound 22], for which, in data set [1] (ref Juneja et al., 2014), the “activity against E. histolytica” value is “most promising activity”. Consider cyclosporine A [reference compound], for which the “proliferation of E. histolytica” value in data set [1] (ref Carrero et al., 2004) is recorded as “inhibits proliferation”.
